Data as given in patent US11420969B2 (Exonate Limited, priority 2017, dated 2022).

What was measured:
SRPK1 = SRPK1 (Homo sapiens, UniProt Q96SB4); assay: In vitro SRPK1 assay (Kinase-Glo); format: biochemical
CYP3A4 = target: T1, CYP3A4 (Homo sapiens, UniProt P08684); assay: CYP inhibition assay, human liver microsomes, substrate midazolam; format: in vitro ADME; details: human liver microsomes, 10 min incubation, LC-MS/MS; read-out: CYP Inhibition Activity (IC50/nM) CYP3A4
T1 construct: from tissue; host or cells: human liver microsomes
Method in brief: (§1)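 First, compound and the substrate pool are mixed and held at 37 °C for 20 min. Next, NADPH initiates a 10 min incubation at 37 °C. Finally, cold acetonitrile quenches the reaction and supernatant goes to LC-MS/MS.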

CYP1A2 = target: T2, CYP1A2 (Homo sapiens, UniProt P05177); assay: CYP inhibition assay, human liver microsomes, substrate tacrine; format: in vitro ADME; details: human liver microsomes, 10 min incubation, LC-MS/MS; read-out: CYP Inhibition Activity (IC50/nM) CYP1A2
T2 construct: from tissue; host or cells: human liver microsomes
T2 sequence (P05177 1-516): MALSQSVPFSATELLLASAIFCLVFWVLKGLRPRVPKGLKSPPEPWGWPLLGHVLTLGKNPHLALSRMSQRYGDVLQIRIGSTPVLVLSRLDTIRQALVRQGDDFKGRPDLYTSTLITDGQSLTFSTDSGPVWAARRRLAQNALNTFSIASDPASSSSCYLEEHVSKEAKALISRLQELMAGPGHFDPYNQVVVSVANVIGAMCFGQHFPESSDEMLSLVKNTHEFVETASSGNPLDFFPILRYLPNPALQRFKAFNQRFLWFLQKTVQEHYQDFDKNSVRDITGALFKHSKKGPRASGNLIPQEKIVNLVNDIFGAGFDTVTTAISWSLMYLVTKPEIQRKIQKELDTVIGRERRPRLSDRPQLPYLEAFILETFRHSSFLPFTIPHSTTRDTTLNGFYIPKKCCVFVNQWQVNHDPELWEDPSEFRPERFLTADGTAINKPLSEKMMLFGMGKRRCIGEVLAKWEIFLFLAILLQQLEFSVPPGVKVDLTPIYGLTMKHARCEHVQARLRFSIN
Method in brief: as §1

CYP2C19 = target: T3, CYP2C19 (Homo sapiens, UniProt P33261); assay: CYP inhibition assay, human liver microsomes, substrate S-mephenytoin; format: in vitro ADME; details: human liver microsomes, 10 min incubation, LC-MS/MS; read-out: CYP Inhibition Activity (IC50/nM) CYP2C19
T3 construct: from tissue; host or cells: human liver microsomes
Method in brief: as §1

CYP2C9 = target: T4, CYP2C9 (Homo sapiens, UniProt P11712); assay: CYP inhibition assay, human liver microsomes, substrate diclofenac; format: in vitro ADME; details: human liver microsomes, 10 min incubation, LC-MS/MS; read-out: CYP Inhibition Activity (IC50/nM) CYP2C9
T4 construct: from tissue; host or cells: human liver microsomes
Method in brief: as §1

CYP2D6 = target: T5, CYP2D6 (Homo sapiens, UniProt P10635); assay: biochemical; format: in vitro ADME
T5 construct: from tissue; host or cells: human liver microsomes
Method in brief: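 Read-out is LC-MS/MS of supernatant, giving % inhibition and IC50 relative to a no-inhibitor ACN/DMSO control. Compound and substrate pool were pre-incubated 20 min at 37° C with human liver microsomes (working stock 0.253 mg/mL) before a 10 min NADPH-driven reaction, quenched with cold ACN.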

T3 sequence (P33261 whole entry): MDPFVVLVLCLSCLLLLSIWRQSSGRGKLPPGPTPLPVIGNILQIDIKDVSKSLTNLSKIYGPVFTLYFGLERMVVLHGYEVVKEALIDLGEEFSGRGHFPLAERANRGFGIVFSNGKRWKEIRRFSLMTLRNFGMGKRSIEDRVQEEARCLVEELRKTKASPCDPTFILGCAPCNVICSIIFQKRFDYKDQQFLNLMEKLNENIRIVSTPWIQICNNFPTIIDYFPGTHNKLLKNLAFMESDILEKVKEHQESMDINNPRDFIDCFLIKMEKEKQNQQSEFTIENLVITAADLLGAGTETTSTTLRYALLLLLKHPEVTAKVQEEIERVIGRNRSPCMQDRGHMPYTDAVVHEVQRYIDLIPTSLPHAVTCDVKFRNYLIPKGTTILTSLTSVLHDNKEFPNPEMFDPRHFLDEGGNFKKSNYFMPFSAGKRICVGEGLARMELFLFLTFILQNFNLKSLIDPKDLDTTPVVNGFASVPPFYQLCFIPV
T4 sequence (P11712 whole entry): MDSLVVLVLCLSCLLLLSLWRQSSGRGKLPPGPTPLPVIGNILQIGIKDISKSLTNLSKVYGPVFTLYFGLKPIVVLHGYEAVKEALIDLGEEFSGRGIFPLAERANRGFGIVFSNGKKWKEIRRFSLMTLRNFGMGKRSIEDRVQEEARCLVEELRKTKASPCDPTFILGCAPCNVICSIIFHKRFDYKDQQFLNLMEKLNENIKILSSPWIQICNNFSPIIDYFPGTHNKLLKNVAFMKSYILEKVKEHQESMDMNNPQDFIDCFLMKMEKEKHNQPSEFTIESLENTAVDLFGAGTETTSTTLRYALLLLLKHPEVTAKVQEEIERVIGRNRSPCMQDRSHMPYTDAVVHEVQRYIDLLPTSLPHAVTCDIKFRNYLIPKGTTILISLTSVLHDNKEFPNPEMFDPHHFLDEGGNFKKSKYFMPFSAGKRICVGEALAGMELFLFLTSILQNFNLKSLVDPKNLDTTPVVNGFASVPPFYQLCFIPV
T1 sequence (P08684 whole entry): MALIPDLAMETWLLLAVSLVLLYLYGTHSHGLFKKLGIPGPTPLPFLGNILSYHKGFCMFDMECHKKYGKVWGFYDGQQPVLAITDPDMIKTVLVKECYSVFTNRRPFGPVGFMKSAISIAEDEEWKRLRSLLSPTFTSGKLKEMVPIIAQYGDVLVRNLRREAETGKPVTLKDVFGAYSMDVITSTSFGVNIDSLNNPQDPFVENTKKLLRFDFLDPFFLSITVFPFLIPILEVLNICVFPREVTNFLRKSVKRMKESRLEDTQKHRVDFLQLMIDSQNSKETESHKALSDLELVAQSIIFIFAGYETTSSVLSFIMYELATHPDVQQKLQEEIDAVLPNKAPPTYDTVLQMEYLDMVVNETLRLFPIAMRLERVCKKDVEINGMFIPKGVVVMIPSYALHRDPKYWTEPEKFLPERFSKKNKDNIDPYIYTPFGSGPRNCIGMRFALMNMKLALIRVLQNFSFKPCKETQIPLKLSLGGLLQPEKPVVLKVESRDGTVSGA
SRPK1, sequence (Q96SB4 whole entry, species assumed): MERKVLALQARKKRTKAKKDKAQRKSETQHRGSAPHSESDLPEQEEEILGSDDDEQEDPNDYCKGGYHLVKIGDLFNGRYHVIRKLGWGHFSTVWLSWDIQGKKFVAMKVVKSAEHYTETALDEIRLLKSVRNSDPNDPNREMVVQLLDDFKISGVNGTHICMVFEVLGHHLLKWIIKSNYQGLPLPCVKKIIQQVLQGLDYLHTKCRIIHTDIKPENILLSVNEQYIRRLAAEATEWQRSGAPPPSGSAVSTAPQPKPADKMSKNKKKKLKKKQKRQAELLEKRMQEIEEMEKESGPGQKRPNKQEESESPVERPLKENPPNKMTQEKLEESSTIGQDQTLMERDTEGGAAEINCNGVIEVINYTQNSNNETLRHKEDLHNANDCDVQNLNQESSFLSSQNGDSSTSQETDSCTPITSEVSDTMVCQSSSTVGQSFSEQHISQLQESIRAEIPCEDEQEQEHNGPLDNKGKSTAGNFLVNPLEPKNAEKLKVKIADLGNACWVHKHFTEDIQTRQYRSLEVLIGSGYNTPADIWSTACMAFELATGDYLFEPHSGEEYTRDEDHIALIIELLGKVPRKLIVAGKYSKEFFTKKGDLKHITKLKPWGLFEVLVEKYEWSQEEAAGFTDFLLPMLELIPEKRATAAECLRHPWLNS
T5 sequence (P10635 whole entry): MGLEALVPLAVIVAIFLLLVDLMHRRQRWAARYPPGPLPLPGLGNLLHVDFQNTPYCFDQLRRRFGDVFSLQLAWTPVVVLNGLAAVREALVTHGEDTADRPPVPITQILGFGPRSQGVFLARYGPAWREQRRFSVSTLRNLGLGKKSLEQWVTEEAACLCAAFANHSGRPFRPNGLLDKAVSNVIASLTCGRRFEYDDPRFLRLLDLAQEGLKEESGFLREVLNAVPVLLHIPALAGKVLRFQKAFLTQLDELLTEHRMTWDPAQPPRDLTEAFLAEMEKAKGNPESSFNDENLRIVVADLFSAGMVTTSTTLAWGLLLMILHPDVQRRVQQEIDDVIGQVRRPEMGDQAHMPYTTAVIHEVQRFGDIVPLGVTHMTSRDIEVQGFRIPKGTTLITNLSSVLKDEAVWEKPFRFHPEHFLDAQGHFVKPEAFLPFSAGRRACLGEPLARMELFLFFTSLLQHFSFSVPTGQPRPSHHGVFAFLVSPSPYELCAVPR

Row | SMILES | IC50 (SRPK1) [nM] | IC50 (CYP3A4) [nM] | IC50 (CYP1A2) [nM] | IC50 (CYP2C19) [nM] | IC50 (CYP2C9) [nM] | IC50 (CYP2D6) [µM]
1 | O=C(Nc1cc(C(F)(F)F)ccc1N1CCC(O)(C2CC2)CC1)c1ccc(C2CCOCC2)o1 [Example 21, N-(2-(4-cyclopropyl-4-hydroxypiperidin-1-yl)-5-(trifluoromethyl)-phenyl)-5-(tetrahydro-2H-pyran-4-yl)furan-2-carboxamide] | 9 | 20900 | > 30000 | 6140 | 6350 | 7.14
2 | C[C@]1(O)CCN(c2ccc(C(F)(F)F)cc2NC(=O)c2ccc(C3CCOCC3)o2)C1 [Example 51, (S)-N-(2-(3-hydroxy-3-methylpyrrolidin-1-yl)-5-(trifluoromethyl)phenyl)-5-(tetrahydro-2H-pyran-4-yl)furan-2-carboxamide] | 96 | > 30000 | > 30000 | 20100 | > 30000 | > 30
3 | O=C(Nc1cc(C(F)(F)F)ccc1N1CCCC(O)CC1)c1ccc(C2CCOCC2)o1 (racemic) [Example 47, N-(2-(4-hydroxyazepan-1-yl)-5-(trifluoromethyl)-phenyl)-5-(tetrahydro-2H-pyran-4-yl)furan-2-carboxamide] | 10.4 | > 30000 | > 30000 | > 30000 | > 30000 | > 30
4 | CNCC1(C)CCN(c2ccc(C(F)(F)F)cc2NC(=O)c2ccc(-c3ccncc3)o2)CC1 [Example 79, N-(2-(4-methyl-4-((methylamino)-methyl)piperidin-1-yl)-5-(trifluoromethyl)phenyl)-5-(pyridin-4-yl)furan-2-carboxamide] | 263 | 4500 | > 30000 | 17800 | > 30000 | 0.4
5 | CC1(C(=O)O)CCN(c2ccc(C(F)(F)F)cc2NC(=O)c2ccc(-c3ccncc3)o2)CC1 [Example 26, 4-methyl-1-(2-(5-(pyridin-4-yl)furan-2-carboxamido)-4-(trifluoromethyl)phenyl)-piperidine-4-carboxylic acid] | 5.6 | 4440 | > 30000 | 12900 | 2150 | > 30
6 | CC1(O)CCN(c2ccc(OC(F)(F)F)cc2NC(=O)c2ccc(-c3ccncc3)o2)CC1 [Example 10, N-(2-(4-hydroxy-4-methylpiperidin-1-yl)-5-(trifluoromethoxy)phenyl)-5-(pyridin-4-yl)furan-2-carboxamide] | 6 | 3780 | 14400 | 2670 | 1770 | 5.42
7 | CC1(O)CCN(c2ccc(OC(F)(F)F)cc2NC(=O)c2ccc(C3CCOCC3)o2)CC1 [Example 16, N-(2-(4-hydroxy-4-methylpiperidin-1-yl)-5-(trifluoromethoxy)phenyl)-5-(tetrahydro-2H-pyran-4-yl)furan-2-carboxamide] | 16 | 27300 | 26700 | 9550 | 5690 | 10.5
8 | O=C(Nc1cc(C2CC2)ccc1N1CCCC(O)CC1)c1ccc(-c2ccncc2)o1 (racemic) [Example 46, N-(5-cyclopropyl-2-(4-hydroxyazepan-1-yl)phenyl)-5-(pyridin-4-yl)furan-2-carboxamide] | 8.7 | 2130 | 6240 | 1180 | 1060 | 1.52
9 | O=C(Nc1cc(C(F)(F)F)ccc1N1CCC(O)(c2ccccc2)CC1)c1ccc(C2CCOCC2)o1 [Example 22, N-(2-(4-hydroxy-4-phenylpiperidin-1-yl)-5-(trifluoromethyl)-phenyl)-5-(tetrahydro-2H-pyran-4-yl)furan-2-carboxamide] | 35 | 18800 | 15300 | 12300 | 12700 | > 30
10 | CC1(N)CCN(c2ccc(C(F)(F)F)cc2NC(=O)c2ccc(-c3ccncc3)o2)CC1 [Example 102, N-(2-(4-amino-4-methylpiperidin-1-yl)-5-(trifluoromethyl)phenyl)-5-(pyridin-4-yl)furan-2-carboxamide] | 44.6 | 3900 | > 30000 | 9400 | 14100 | 0.1
11 | C[C@]1(O)CCN(c2ccc(C(F)(F)F)cc2NC(=O)c2ccc(-c3ccncc3)o2)C1 [Example 53, (S)-N-(2-(3-hydroxy-3-methylpyrrolidin-1-yl)-5-(trifluoromethyl)phenyl)-5-(pyridin-4-yl)furan-2-carboxamide] | 169 | 1330 | 2810 | 1190 | 450 | 0.01
12 | CC1(O)CCN(c2ccc(C3CC3)cc2NC(=O)c2ccccn2)CC1 [Example 3, N-(5-cyclopropyl-2-(4-hydroxy-4-methylpiperidin-1-yl)phenyl)-picolinamide] | 19 | 17100 | 14400 | 7160 | 12000 | > 30
13 | COc1ccc(N2CCC(C)(O)CC2)c(NC(=O)c2ccc(-c3ccncc3)o2)c1 [Example 9, N-(2-(4-hydroxy-4-methylpiperidin-1-yl)-5-methoxyphenyl)-5-(pyridin-4-yl)furan-2-carboxamide] | 4.4 | 360 | 4990 | 890 | 350 | 5.1

Now those with a lower IC50 (SRPK1), led by results:

Row | IC50 (SRPK1) [nM] | IC50 (CYP3A4) [nM] | IC50 (CYP1A2) [nM] | IC50 (CYP2C19) [nM] | IC50 (CYP2C9) [nM] | IC50 (CYP2D6) [µM] | SMILES
14 | 3.7 | > 30000 | 6590 | 7500 | 4940 | 21.5 | Cc1ccc(N2CCC(O)CC2)c(NC(=O)c2ccc(C3CCOCC3)o2)c1 [Example 36, N-(2-(4-hydroxypiperidin-1-yl)-5-methylphenyl)-5-(tetrahydro-2H-pyran-4-yl)furan-2-carboxamide]
15 | 2.9 | 4190 | > 30000 | 2700 | 5420 | 8.79 | O=C(Nc1cc(C2CC2)ccc1N1CCC(O)(CC2CC2)CC1)c1ccc(C2CCOCC2)o1 [Example 71, N-(5-cyclopropyl-2-(4-(cyclopropylmethyl)-4-hydroxypiperidin-1-yl)phenyl)-5-(tetrahydro-2H-pyran-4-yl)furan-2-carboxamide]
16 | 2.8 | 10300 | > 30000 | 10800 | 4400 | 11.8 | CC1(C(N)=O)CCN(c2ccc(C(F)(F)F)cc2NC(=O)c2ccc(C3CCOCC3)o2)CC1 [Example 75, 4-methyl-1-(2-(5-(tetrahydro-2H-pyran-4-yl)furan-2-carboxamido)-4-(trifluoromethyl)-phenyl)piperidine-4-carboxamide]
17 | 2 | > 30000 | > 30000 | 15800 | 4960 | > 30 | CC1(CO)CCN(c2ccc(C(F)(F)F)cc2NC(=O)c2ccc(C3CCOCC3)o2)CC1 [Example 25, N-(2-(4-(hydroxymethyl)-4-methylpiperidin-1-yl)-5-(trifluoromethyl)phenyl)-5-(tetrahydro-2H-pyran-4-yl)furan-2-carboxamide]
18 | 2 | 15200 | > 30000 | 9570 | 3770 | > 30 | CC1(O)CCN(c2ccc(C3CC3)cc2NC(=O)c2ccc(C3CCOCC3)o2)CC1 [Example 17, N-(5-cyclopropyl-2-(4-hydroxy-4-methylpiperidin-1-yl)phenyl)-5-(tetrahydro-2H-pyran-4-yl)furan-2-carboxamide]
19 | 1.2 | > 30000 | > 30000 | 10600 | 7600 | > 30 | O=C(Nc1cc(C2CC2)ccc1N1CCC(O)CC1)c1ccc(C2CCOCC2)o1 [Example 61, N-(5-cyclopropyl-2-(4-hydroxypiperidin-1-yl)phenyl)-5-(tetrahydro-2H-pyran-4-yl)furan-2-carboxamide]
20 | 1.2 | 10900 | > 30000 | 11400 | 2800 | 16.1 | CC1(CO)CCN(c2ccc(Cl)cc2NC(=O)c2ccc(C3CCOCC3)o2)CC1 [Example 68, N-(5-chloro-2-(4-(hydroxymethyl)-4-methyl-piperidin-1-yl)phenyl)-5-(tetrahydro-2H-pyran-4-yl)furan-2-carboxamide]
